This note sets out measurements from paper PMC5601625, “Defining a therapeutic window for kinase inhibitors in leukemia to avoid neutropenia” (Oncotarget, 2017).

The term IC50 denotes the point on the concentration scale where inhibition reaches its midpoint.

What all share (assay): Cell Titer Glo cell viability assay, 48 h
Format in all cases: cell-based, human
In general terms: In ATP-based viability assays light output follows the ATP content of the culture.

In assay [1] the test system is HL-60. Conditions: 48 h; for IC50: mean of 2 independent experiments, 0 = less than 10 nM, cell line not given, read-out: IC50 of inhibitors on cell lines, m (mean); for anti-proliferative activity in HL-60 cells: dose-response, Cell Titer Glo. How it is done:
(§1) The activity of the kinase inhibitor collection against a panel of human leukemia cell lines was determined in cell viability assays run over 48 h using the Cell Titer Glo reagent.
(§2) Figure 1 Effects of kinase inhibition on the proliferation of leukemia cells A. Human leukemia cell lines were treated with duplicate serial dilutions of kinase inhibitors and the effect on cell viability was determined by Cell Titer Glo assay after 48 hours. […] HL-60 cells were treated with serial dilutions of mTor/PI3K B. and MEK C. inhibitors and the effect on cell viability was determined after 48 hours. Data shown is the mean ± SEM of 3 independent experiments.
(§3) Leukemia and lymphoma cell lines were grown in RPMI containing 10% FCS. […] Cell lines are routinely tested for mycoplasma and genotyped by short tandem repeating (STR) profiling to confirm identity.
(§4) Compounds were obtained from SynMedChem and dissolved at […] in DMSO. Serial 2-fold dilutions of each compound were prepared in DMSO using a liquid handling robot (Janus, Perkin Elmer). Each dilution (100nL) was transferred to duplicate tissue culture plates containing 50 μL of media containing 5 × 10^3 cells using a 384 well pin tool. Cells were incubated for 48 h and cell viability was determined using Cell Titer Glow reagents as described by the manufacturer (Promega). Data was acquired using a luminescent plate reader (Envision, Perkin Elmer) and analysed using Activity Base (IDBS, Guilford, UK) and visualised using Spotfire (TIBCO, Palo Alto, CA) as described previously. Each cell line was assayed in independent experiments on at least two occasions. […] Serial 2-fold dilutions of each compound were prepared in media containing 0.2% DMSO and 50 μl of each dilution was added to 10^4 cells in 50 μl of media. Cells were incubated for 48 h and cell viability was determined using Cell Titer Glow assay as described above.

Assay [2] concerns U937. To be noted: 48 h, mean of 2 independent experiments, 0 = less than 10 nM, cell line not given, read-out: IC50 of inhibitors on cell lines, m (mean). How it is done:
as §1, §2, §3, §4

Assay [3] concerns MOLT4. Conditions: 48 h, mean of 2 independent experiments, 0 = less than 10 nM, cell line not given, read-out: IC50 of inhibitors on cell lines, m (mean). How it is done: as §1, §2, §3, §4
In assay [4] the test system is JURKAT. Conditions: 48 h, mean of 2 independent experiments, 0 = less than 10 nM, cell line not given, read-out: IC50 of inhibitors on cell lines, m (mean). The method, then:
as §1, §2, §3, §4

The subject of assay [5] is K562. To be noted: 48 h, mean of 2 independent experiments, 0 = less than 10 nM, cell line not given, read-out: IC50 of inhibitors on cell lines, m (mean). The method, then: as §1, §2, §3, §4
Assay [6] relates to KU-812. Conditions: 48 h, mean of 2 independent experiments, 0 = less than 10 nM, cell line not given, read-out: IC50 of inhibitors on cell lines, m (mean). The method, then: as §1, §2, §3, §4
Assay [7] has as its system MV4;11. To be noted: 48 h, mean of 2 independent experiments, 0 = less than 10 nM, cell line not given, read-out: IC50 of inhibitors on cell lines, m (mean). How it is done:
as §1, §2, §3, §4

Assay [8] relates to MEG-01. Conditions: 48 h, mean of 2 independent experiments, 0 = less than 10 nM, cell line not given, read-out: IC50 of inhibitors on cell lines, m (mean). How it is done: as §1, §2, §3, §4
Assay [9] concerns THP-1. To be noted: 48 h, mean of 2 independent experiments, 0 = less than 10 nM, cell line not given, read-out: IC50 of inhibitors on cell lines, m (mean). The method, then:
as §1, §2, §3, §4

Assay [10] concerns OCI-AML3. To be noted: 48 h, mean of 2 independent experiments, 0 = less than 10 nM, cell line not given, read-out: IC50 of inhibitors on cell lines, m (mean). How it is done: as §1, §2, §3, §4
Assay [11] relates to HEL.92.1.7. Conditions: 48 h, mean of 2 independent experiments, 0 = less than 10 nM, cell line not given, read-out: IC50 of inhibitors on cell lines, m (mean). The method, then: as §1, §2, §3, §4
In assay [12] the test system is EOL-1. Conditions: 48 h, mean of 2 independent experiments, 0 = less than 10 nM, cell line not given, read-out: IC50 of inhibitors on cell lines, m (mean). The method, then:
as §1, §2, §3, §4

“Also recorded” adds a separate entry of the source. Like-named read-outs stand apart in the source and are kept apart here.

Turning to `CC(C)[C@H](CO)Nc1nc(Nc2ccc(C(=O)O)c(Cl)c2)c2ncn(C(C)C)c2n1` [Purvalanol B], the IC50 in [1] (Homo sapiens) was over 10 µM; in [2] (Homo sapiens, U-937), over 10 µM; in assay [3] (Homo sapiens, MOLT-4), over 10 µM; in assay [4] (Homo sapiens), over 10 µM; in [5] (Homo sapiens) it was over 10 µM; in [6] (Homo sapiens, KU812), over 10 µM. Moreover, the IC50 in [7] (Homo sapiens) is 9.13 µM; in [8] (Homo sapiens), over 10 µM; in assay [9] (Homo sapiens) it was over 10 µM; in assay [10] (Homo sapiens, OCI-AML-3), over 10 µM; in assay [11] (Homo sapiens), over 10 µM; in [12] (Homo sapiens, EOL1) it was over 10 µM.
On to `O=C(NOC[C@H](O)CO)c1ccc(F)c(F)c1Nc1ccc(I)cc1F` [PD0325901], for which the “anti-proliferative activity in HL-60 cells” value (from here on “anti-proliferative activity”) in assay [1] is on record as “potent activity selectively against the HL-60 cell line; also recorded: selective activity”.
For `Cc1cc(C(C)Nc2ccccc2)c2nc(N3CCOCC3)cc(=O)n2c1` (stereo not shown) [TGX221], the IC50 was over 10 µM in [1]; 9.85 µM in [2]; over 10 µM in assay [3]; 9.84 µM in [4]; 9.16 µM in assay [5]; over 10 µM in [6]. Besides, the IC50 was 0.65 µM in assay [7]; over 10 µM in [8]; over 10 µM in assay [9]; 9.72 µM in assay [10]; over 10 µM in [11]; 0.43 µM in assay [12].
Consider `NC(=O)c1ccc(N(C(N)=O)c2c(F)cccc2F)nc1-c1ccc(F)cc1F` [VX702], for which the IC50 in assay [1] (Homo sapiens) was over 10 µM; in assay [2] (Homo sapiens, U-937), over 10 µM; in assay [3] (Homo sapiens, MOLT-4), over 10 µM; in assay [4] (Homo sapiens) it was over 10 µM; in assay [5] (Homo sapiens), over 10 µM; in assay [6] (Homo sapiens, KU812), over 10 µM. The IC50 in assay [7] (Homo sapiens) was over 10 µM; in [8] (Homo sapiens) it was over 10 µM; in assay [9] (Homo sapiens) it was over 10 µM; in [10] (Homo sapiens, OCI-AML-3), over 10 µM; in assay [11] (Homo sapiens) it was over 10 µM; in assay [12] (Homo sapiens, EOL1) it was 5.5 µM.
Consider `Cn1c(=O)c(Oc2ccc(F)cc2F)cc2cnc(NC3CCOCC3)nc21` [R1487], for which the IC50 in [1], in assay [2], in [3], in assay [4], in assay [5] and in assay [6] was over 10 µM throughout. Moreover, the IC50 in assay [7] is over 10 µM; in assay [8], over 10 µM; in assay [9] it was over 10 µM; in assay [10] it was over 10 µM; in assay [11], over 10 µM; in [12] it was 1.41 µM.
Regarding `NC(=O)c1ccc2[nH]ccc2c1` [SD169], the IC50 in assay [1], in assay [2], in assay [3], in assay [4], in assay [5] and in [6] was over 10 µM each time. In addition, the IC50 in assay [7] was over 10 µM; in assay [8], over 10 µM; in assay [9] it was over 10 µM; in [10], over 10 µM; in [11], over 10 µM; in assay [12], 5.12 µM.
On to `COc1cc2c(Nc3ccc(Br)cc3F)ncnc2cc1OCC1CCN(C)CC1` [Vandetanib], for which the IC50 in [1] (Homo sapiens) was 7.28 µM; in [2] (Homo sapiens, U-937), 9.46 µM; in assay [3] (Homo sapiens, MOLT-4) it was 6.79 µM; in assay [4] (Homo sapiens), 6.28 µM; in [5] (Homo sapiens), 2.73 µM; in [6] (Homo sapiens, KU812), 0.82 µM. Further, the IC50 in assay [7] (Homo sapiens) is 0.86 µM; in [8] (Homo sapiens), 1.51 µM; in assay [9] (Homo sapiens), over 10 µM; in assay [10] (Homo sapiens, OCI-AML-3) it was over 10 µM; in [11] (Homo sapiens) it was over 10 µM; in [12] (Homo sapiens, EOL1), 0.19 µM.
Regarding `COc1nccc(-c2c(-c3ccc(F)cc3)ncn2C2CCNCC2)n1` [SB242235], the IC50 in [1] (Homo sapiens) was over 10 µM; in assay [2] (Homo sapiens, U-937), over 10 µM; in assay [3] (Homo sapiens, MOLT-4), over 10 µM; in assay [4] (Homo sapiens) it was over 10 µM; in [5] (Homo sapiens), over 10 µM; in assay [6] (Homo sapiens, KU812) it was over 10 µM. In addition, the IC50 is 6.16 µM in [7] (Homo sapiens); 2.18 µM in assay [8] (Homo sapiens); over 10 µM in assay [9] (Homo sapiens); over 10 µM in assay [10] (Homo sapiens, OCI-AML-3); over 10 µM in [11] (Homo sapiens); 0.51 µM in assay [12] (Homo sapiens, EOL1).
On to `COC(=O)c1ccc2c(c1)NC(=O)/C2=C(\Nc1ccc(N(C)C(=O)CN2CCN(C)CC2)cc1)c1ccccc1` [Vargatef], for which the IC50 was 3.55 µM in [1] (Homo sapiens); 6.31 µM in assay [2] (Homo sapiens, U-937); 3.69 µM in [3] (Homo sapiens, MOLT-4); 2.7 µM in [4] (Homo sapiens); 0.59 µM in [5] (Homo sapiens); 0.24 µM in [6] (Homo sapiens, KU812). For the same compound, the IC50 was 0.04 µM in assay [7] (Homo sapiens); 0.46 µM in assay [8] (Homo sapiens); 5.85 µM in assay [9] (Homo sapiens); 3.44 µM in [10] (Homo sapiens, OCI-AML-3); 2.97 µM in assay [11] (Homo sapiens).
`CC1=C(C(=O)Nc2cc3cn[nH]c3cc2F)C(c2ccc(C(F)(F)F)cc2)CC(=O)N1` (stereo not shown) [RHO-15]: the IC50 in assay [1] was over 10 µM; in assay [2], 9.64 µM; in [3] it was over 10 µM; in assay [4], over 10 µM; in [5] it was 7.75 µM; in [6], 2.11 µM. In addition, the IC50 in [7] is 7.22 µM; in assay [8], 5.14 µM; in assay [9] it was over 10 µM; in [10], over 10 µM; in assay [11], over 10 µM; in assay [12], 0.19 µM.
Consider `O=C1NC(=O)/C(=C/c2cccc(C(F)(F)F)c2)S1` [SMI-4a], for which the half-maximal inhibitory concentration (IC50) in assay [1] was over 10 µM; in [2], over 10 µM; in assay [3], over 10 µM; in assay [4], over 10 µM; in [5] it was 2.74 µM; in assay [6], 4.54 µM. Moreover, the IC50 is 9.71 µM in assay [7]; 5.78 µM in assay [8]; over 10 µM in [9]; over 10 µM in assay [10]; over 10 µM in [11]; 0.13 µM in assay [12].
As to `CNC(=O)c1cc(Oc2ccc(NC(=O)Nc3ccc(Cl)c(C(F)(F)F)c3)cc2)ccn1` [Sorafenib], the IC50 was 5.73 µM in assay [1] (Homo sapiens); 5.33 µM in assay [2] (Homo sapiens, U-937); over 10 µM in assay [3] (Homo sapiens, MOLT-4); over 10 µM in assay [4] (Homo sapiens); 9.94 µM in assay [5] (Homo sapiens); 3.79 µM in [6] (Homo sapiens, KU812). Moreover, the IC50 in assay [7] (Homo sapiens) is 0.01 µM; in [8] (Homo sapiens), 6.28 µM; in assay [9] (Homo sapiens), over 10 µM; in assay [10] (Homo sapiens, OCI-AML-3) it was 5.46 µM; in [11] (Homo sapiens) it was over 10 µM.
Consider `CN(C)C1CCN(C(=O)c2ccc(NC(=O)Nc3ccc(-c4nc(N5CCOCC5)nc(N5CCOCC5)n4)cc3)cc2)CC1` [PKI-587], for which, in [1], the “anti-proliferative activity” value is “significant anti-proliferative activity”.
Still for that read-out and setting: the result for `COc1ccc(-c2cc3c(C)nc(N)nc3n([C@H]3CC[C@H](OCCO)CC3)c2=O)cn1` [PF-04691502] reads “significant anti-proliferative activity”.
Regarding `O=C(NOCC1CC1)c1ccc(F)c(F)c1Nc1ccc(I)cc1Cl` [CI-1040], the “anti-proliferative activity” value in assay [1] was “potent activity selectively against the HL-60 cell line; also recorded: selective activity”.
Consider `CC(=O)Nc1cccc(-n2c(=O)n(C3CC3)c(=O)c3c(Nc4ccc(I)cc4F)n(C)c(=O)c(C)c32)c1` [GSK-1120212], for which, in assay [1], the “anti-proliferative activity” value is given as “selective activity”.
As for `CS(=O)(=O)N1CCN(Cc2cc3nc(-c4cccc5[nH]ncc45)nc(N4CCOCC4)c3s2)CC1` [GDC-0941], in assay [1], the “anti-proliferative activity” value is on record as “significant anti-proliferative activity”.
